Measurements from ChEMBL document CHEMBL3399998, “Synthesis and biological evaluation of chalcone analogues as protective agents against cisplatin-induced cytotoxicity in kidney cells” (Bioorg Med Chem Lett, 2015).
Active and inactive are the calls of the source. No cut-off for these calls is given here.

Columns and labels:
LLC-PK1 [1] = test: Renoprotective activity against cisplatin-induced cytotoxicity in pig LLC-PK1 cells assessed as recovery of cell viability treated for 2 hrs and followed by challenged with cisplatin for 24 hrs by MTT assay; format: functional, cell-based; conditions: Sus scrofa
LLC-PK1 [2] = test: Renoprotective activity against cisplatin-induced cytotoxicity in pig LLC-PK1 cells assessed as recovery of cell viability at 25 uM treated for 2 hrs and followed by challenged with cisplatin for 24 hrs by MTT assay; format: functional, cell-based; conditions: Sus scrofa
LLC-PK1 [3] = test: Renoprotective activity against cisplatin-induced apoptosis in pig LLC-PK1 cells assessed as reduction in cisplatin-induced dead and apoptotic cells at 25 uM treated for 2 hrs and followed by challenged with cisplatin for 24 hrs by annexin V/Tali image-based cytometry; format: functional, cell-based; conditions: Sus scrofa
RAW264.7 = test: Suppression of LPS-induced NO production in mouse RAW264.7 cells treated for 2 hrs and followed by challenged with […] for 24 hrs by griess reagent; format: functional, cell-based
LLC-PK1 [4] = test: Renoprotective activity against cisplatin-induced apoptosis in pig LLC-PK1 cells assessed as reduction in cisplatin-induced phosphorylated ERK at 25 uM treated for 2 hrs and followed by challenged with cisplatin for 24 hrs by Western blot analysis; format: functional, cell-based; conditions: Sus scrofa
LLC-PK1 [5] = test: Renoprotective activity against cisplatin-induced apoptosis in pig LLC-PK1 cells assessed as reduction in cisplatin-induced p53 level at 25 uM treated for 2 hrs and followed by challenged with cisplatin for 24 hrs by Western blot analysis; format: functional, cell-based; conditions: Sus scrofa
LLC-PK1 [6] = test: Reduction in cisplatin-induced MAPK phosphorylation in pig LLC-PK1 cells at 25 uM treated for 2 hrs and followed by challenged with cisplatin for 24 hrs by Western blot analysis; format: cell-based; conditions: Sus scrofa
LLC-PK1 [7] = test: Renoprotective activity against cisplatin-induced apoptosis in pig LLC-PK1 cells assessed as reduction in cisplatin-induced phosphorylated JNK at 25 uM treated for 2 hrs and followed by challenged with cisplatin for 24 hrs by Western blot analysis; format: functional, cell-based; conditions: Sus scrofa
LLC-PK1 [8] = test: Renoprotective activity against cisplatin-induced cytotoxicity in pig LLC-PK1 cells assessed as recovery of cell viability at 2 to 25 uM treated for 2 hrs and followed by challenged with cisplatin for 24 hrs by MTT assay; format: functional, cell-based; conditions: Sus scrofa
LLC-PK1 [9] = test: Renoprotective activity against cisplatin-induced apoptosis in pig LLC-PK1 cells assessed as reduction in cisplatin-induced cleaved caspase-3 at 25 uM treated for 2 hrs and followed by challenged with cisplatin for 24 hrs by Western blot analysis; format: functional, cell-based; conditions: Sus scrofa
LLC-PK1 [10] = test: Renoprotective activity against cisplatin-induced apoptosis in pig LLC-PK1 cells assessed as reduction in cisplatin-induced phosphorylated p38 at 25 uM treated for 2 hrs and followed by challenged with cisplatin for 24 hrs by Western blot analysis; format: functional, cell-based; conditions: Sus scrofa
LLC-PK1 [11] = test: Renoprotective activity against cisplatin-induced cytotoxicity in pig LLC-PK1 cells assessed as recovery of cell viability at 125 uM treated for 2 hrs and followed by challenged with cisplatin for 24 hrs by MTT assay; format: functional, cell-based; conditions: Sus scrofa
LLC-PK1 [12] = test: Renoprotective activity against cisplatin-induced cytotoxicity in pig LLC-PK1 cells assessed as recovery of cell viability at 25 to 125 uM treated for 2 hrs and followed by challenged with cisplatin for 24 hrs by MTT assay; format: functional, cell-based; conditions: Sus scrofa

Structure (SMILES)	Activity (LLC-PK1 [1])	Activity (LLC-PK1 [2])	Activity (LLC-PK1 [3])	inhibition (RAW264.7)	Activity (LLC-PK1 [4])	Activity (LLC-PK1 [5])	inhibition (LLC-PK1 [6])	Activity (LLC-PK1 [7])	Activity (LLC-PK1 [8])	Activity (LLC-PK1 [9])	Activity (LLC-PK1 [10])	Activity (LLC-PK1 [11])	Activity (LLC-PK1 [12])
COc1cc(Br)c(/C=C/C(=O)c2ccc(Br)cc2)cc1OC	Dose-dependent effect	Active	Active	Dose-dependent effect	Active	Active	Active	Active	Active	Active	Active		
COc1cccc(C(=O)/C=C/c2ccc(Cl)cc2)c1	Dose-dependent effect		Active	Dose-dependent effect	Active	Active		Active		Active	Active		
COc1ccc(/C=C/C(=O)c2ccc(Br)cc2)cc1OC	Dose-dependent effect			Dose-dependent effect								Active	
COc1ccc(C(=O)/C=C/c2cc(OC)c(Br)c(OC)c2)cc1OC	Dose-dependent effect			Dose-dependent effect									inactive
Cc1ccc(/C=C/C(=O)c2ccc(Cl)cc2)cc1	Dose-dependent effect			Dose-dependent effect								Active	
COc1cccc(C(=O)/C=C/c2cc(OC)c(OC)cc2Br)c1	Dose-dependent effect			Dose-dependent effect									
